According to patent US5990170A, “Therapeutic use of mono and bicarboxylic acid amides active at the peripheral cannabinoid receptor” (Lifegroup S.p.A., priority 1994, dated 1999):
Entries after “also recorded” stand apart in the source; their conditions may differ. Like-named read-outs stand apart in the source and are kept apart here.

How the values were obtained:
[1] = target: T1, CB2 receptor (RBL-2H3 cell membranes) (Rattus norvegicus, UniProt Q9QZN9); assay: Saturation curve of labelled receptor agonist 3H-WIN 55,212-2 on RBL-2H3 cell membranes; type: binding; conditions: 0.5 to 20 nM 3H-WIN 55,212-2; 30 μg membrane proteins; 30° C., 60 min
T1 construct: Preparation of Plasmatic Membranes of RBL-2H3 Cells; endogenous in cells; host or cells: RBL-2H3 (rat basophilic leukemia) cell membranes
T1 sequence (Q9QZN9 1-360): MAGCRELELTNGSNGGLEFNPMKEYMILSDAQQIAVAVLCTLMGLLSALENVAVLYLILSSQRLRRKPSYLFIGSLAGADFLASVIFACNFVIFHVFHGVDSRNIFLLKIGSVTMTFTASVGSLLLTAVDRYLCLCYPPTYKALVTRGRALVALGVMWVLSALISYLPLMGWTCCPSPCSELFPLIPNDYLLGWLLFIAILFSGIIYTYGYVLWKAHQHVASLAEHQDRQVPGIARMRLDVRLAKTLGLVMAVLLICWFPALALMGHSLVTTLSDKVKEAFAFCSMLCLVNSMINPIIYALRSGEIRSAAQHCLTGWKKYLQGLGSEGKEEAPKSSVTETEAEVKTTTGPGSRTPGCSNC
Experimental: (§1) RBL-2H3 cells (100×10^6), frozen at -80° C., were thawed with 4 ml of Tris-HCl buffer solution 50 mM (pH 7.4), added with 0.25% w/v of Tripsin inhibitor, TYPE II-S: SOY BEAN® (distributed by Sigma). The cells were resuspended in the buffer and homogenized. The homogenate was centrifuged at 1500×g at 4° C. for 10 min. The supernatant obtained was collected and the precipitate was resuspended in 4 ml of the previous buffer. The resuspended precipitate was homogenized and centrifuged again at 1500×g at 4° C. for 5-10 min. The resulting supernatant was combined to the supernatant previously obtained and centrifuged at 5000×g for 10 min. After centrifugation, the supernatant was collected and further centrifuged at 40,000×g at 4° C. for 30 min. The resulting precipitate was resuspended in 0.5 ml of the buffer solution described above, with addition of 1% Bovine Serum Albumin fatty acid free. The obtained suspension was centrifuged at 40,000×g at 4° C. for 30 min. The resulting precipitate was collected and resuspended in buffer solution containing 50 mM Tris HCl, 1 mM Tris-EDTA, 3 mM MgCl2, pH 7.4, in order to obtain a proteic concentration of 1 μg/μl approx. This preparation may be used fresh, or frozen at -80° C. and utilized within few days.

RBL-2H3 cells = assay: Inhibition of 3H-serotonin release induced by ADNP/DNP-HSA immunogenic stimulation in RBL-2H3 cells; type: cell-based, rat; conditions: for inhibition at 10 µM: RBL-2H3, 10 μM, 1% DMSO and 0.1% ethanol (Table 4), read-out: 3H-serotonin net release inhibition (%); for inhibition at 12.5 µM: RBL-2H3, read-out: 3H-serotonin net release inhibition (%), 12.5 μM
physchem = conditions: chloroform, organic solvent or mixture
[2] = target: T1, CB2 receptor (RBL-2H3 cell membranes); assay: Competitive displacement of 3H-WIN 55,212-2 binding to RBL-2H3 cell membranes; conditions: for inhibition at 10 µM: read-out: % Displacement
Experimental: as §1
Non-radioactive WIN 55,212-2 (1 μM) was used to inhibit specific binding. […] The competitors were added to the binding mixture prior to the labelled ligand. In both cases, for an evaluation of the reference specific binding, ethanol and DMSO were added at the same final concentration to the total binding and to the aspecific one, also in the absence of competitors.
WIN 55,212-2 was used at a concentration of 3 μM, whereas the other compounds were used at a concentration of 10 μM.
Incubation was carried out in the presence of 1% DMSO. The values of Inhibitory Concentration 50 (IC50) are expressed as means ± SEM, after the number of experiments reported hereinbelow.

CB1 central receptor [3] = conditions: result in words; Devane et al., 1992; cited from earlier work
[4] = Solubility in water and organic solvents; conditions: result in words
[5] = target: T1, CB2 receptor (RBL-2H3 cell membranes); assay: Competitive displacement of 3H-WIN 55,212-2 binding to RBL-2H3 cell membranes; conditions: competitor 10 μM
CB1 central receptor [6] = conditions: result in words; cited from earlier work
activated macrophages = conditions: result in words; Fischer-Stenger et al., 1993; cited from earlier work

SMILES: Cc1c(C(=O)c2cccc3ccccc23)c2cccc3c2n1C(CN1CCOCC1)CO3 (stereo not drawn) [3H-WIN 55,212-2]
- Bmax [1]: 100 to 250 pM

SMILES: CCCCCCCCCCCCCCCCCC(=O)NCCO [Example 23, N-(2-hydroxyethyl)-stearoylamide]
- inhibition at 60 µM (RBL-2H3 cells; Rattus norvegicus, RBL-2H3, read-out: 3H-serotonin release inhibition %, 0.2% DMSO, 60 μM (Table 8)): 60%
- inhibition at 100 µM (RBL-2H3 cells; Rattus norvegicus, RBL-2H3, read-out: 3H-serotonin release inhibition %, 1% DMSO, 100 μM (Table 8)): 91%
- EC50 (RBL-2H3 cells; Rattus norvegicus, RBL-2H3, read-out: EC50, concentration inhibiting by 50% the net release of 3H serotonin, 1% DMSO, 15 minutes release period (Table 9)): 11 µM
- IC50 (RBL-2H3 cells; read-out: ED50, inhibition of 3H-serotonin release, + anandamide (12.5 μM) (Table 5), 15 min): 10.1 µM
- IC50 (RBL-2H3 cells; read-out: ED50, inhibition of 3H-serotonin release, - anandamide (Table 5), 15 min): 2.4 µM
- solubility (physchem): > 5000 µg/mL

SMILES: CCCCCCCCCCCCCCCC(=O)NCCO [Example 25, N-palmitoylethanolamide]
- inhibition at 10 µM (RBL-2H3 cells; Rattus norvegicus, + anandamide (12.5 μM)): 0%
- inhibition at 10 µM (RBL-2H3 cells; Rattus norvegicus, - anandamide): 100%
- activity at 10 µM (RBL-2H3 cells; Rattus norvegicus, RBL-2H3, 0.25 h, 10 μM (minimum effective concentration), 1% DMSO and 0.1% ethanol (Table 3), read-out: 3H-serotonin net release (%)): 0%
- IC50 (RBL-2H3 cells; Rattus norvegicus, RBL-2H3, 0.25 h, 1% DMSO and 0.1% ethanol (Table 3), read-out: ED50 (the source's name)): 2.6 µM
- functional effect following receptor activation (serotonin release) (RBL-2H3 cells; result in words): can inhibit the effects induced by mast cell activation and exert an effect that is higher than or comparable to the one of cannabinoids
- functional effect following receptor activation (serotonin release) (RBL-2H3 cells; result in words, listed as palmitoylethanolamide): capable of functionally activating the peripheral receptor
- IC50 [2]: 0.001 ± 0.00055 µM
- inhibition at 10 µM [2]: 23%
- binding to the central receptor (CB1 central receptor [3]): not able to bind to the central receptor
- solubility in organic solvents [4]: in hot MetOH, CHCl3, DMSO
- solubility in water [4]: insoluble
- Specific binding ([5]; 0.1% DMSO): 1103

SMILES: CCCCC/C=C\C/C=C\C/C=C\C/C=C\CCCC(=O)NCCO [anandamide, arachidonylethanolamide, reference compound]
- inhibition at 12.5 µM (RBL-2H3 cells; Rattus norvegicus, + WIN 55,212-2 (30 μm) (Table 6)): 15%
- inhibition at 12.5 µM (RBL-2H3 cells; Rattus norvegicus, - WIN (Table 6)): 7%
- 3H-serotonin net release (%) (RBL-2H3 cells; concentration not given, 0.1% DMSO and 0.1% ethanol (Table 3), 15 min): 100%
- antagonism of the protective effects of cannabinoids (RBL-2H3 cells; result in words): competitive antagonism on the peripheral receptor
- functional effect following receptor activation (serotonin release) (RBL-2H3 cells; result in words): unable to affect serotonin release; also recorded: is not able to induce biological effects
- functional activation of CB1 central receptor (CB1 central receptor [6]): can functionally activate CB1 central receptor
- inhibition at 10 µM [2]: 95%
- binding to the peripheral receptor ([2]; result in words): able to bind to the receptor and to compete; also recorded: having binding affinity for the peripheral receptor
- Specific binding ([5]; 0.1% ethanol): 99

SMILES: CCCCCc1cc(O)c2c(c1)OC(C)(C)[C@@H]1CCC(C)=C[C@@H]21 [Δ9-THC, Δ9-tetrahydrocannabinol, reference compound]
- activity at 25 µM (RBL-2H3 cells; Rattus norvegicus, RBL-2H3, 0.25 h, read-out: 3H-serotonin net release (%)): 27%
- IC50 (RBL-2H3 cells; Rattus norvegicus, RBL-2H3, 0.25 h, read-out: ED50): 5 µM
- inhibition at 25 µM (RBL-2H3 cells; Rattus norvegicus, RBL-2H3, read-out: 3H-serotonin net release inhibition (%), 25 μM, - anandamide (Table 4)): 73%
- functional effect following receptor activation (serotonin release) (RBL-2H3 cells; result in words): able to inhibit, in a concentration-dependent way, RBL cells immunogenic activation
- effect on cytolytic activity of activated macrophages (activated macrophages): decreases the cytolytic activity of activated macrophages
